Literature values, collected in patent publication US20070155664A1, “Parathyroid hormone (pth) containing pharmaceutical compositions for oral use” (Nycomed Danmark A/S, priority 2003, published 2007).

How the values were obtained:
postmenopausal women = conditions: calcium supplementation
pre-menopausal women = conditions: 1200 mg calcium supplements daily, three menstrual cycles; placebo 48%

[Ca+2] [calcium]
reduced bone loss, on average (postmenopausal women): about 1 % year | women with PMS related symptoms (pre-menopausal women): 30% | oral administered dose absorbed (oral): 20-33% | absorption efficiency (young adult, on average): about 30%
